Measured values as given in patent US20250099485A1, “COMPOSITIONS FOR PROMOTING HAIR GROWTH” (ESTETRA SRL, priority 2021, published 2025).

What was measured:
human dermal fibroblasts = test: Wound healing gene expression RT-qPCR array, fibroblasts; assay type: cell-based; settings: 10^−7M, 15 h, relative to ethanol control
Source text: The healing properties of E4 were investigated at the transcriptional level by studying gene expression changes by RT-qPCR. 84 genes qPCR arrays focusing on the wound healing process were used. These arrays contain genes important for the three phases of wound healing process, including extra-cellular matrix (ECM) remodeling factors, inflammatory cytokines and chemokines as well as growth factors and major signaling molecules. The changes in gene expression were interpreted in a dermo cosmetic context in order to highlight the potential benefits of the E4 towards wound healing.
After 24 h seeded on 25 cm^2 culture flasks (T25), cells were treated with E4 during 15 h. The culture conditions were the same as the one used for the scratch test (see Example 2) and cells were treated with E4 in absence of FBS/HKGS. The cell density used for gene expression assay was lower than the ones used for the scratch tests: 15 800 cells/cm^2 for gene expression assay vs 113 636 cell/cm^2 for keratinocytes and 100 000 cells/cm^2 for fibroblasts in culture inserts for wound closure assay.
At the end of the 15 h treatment with E4 10^−7M or ethanol 0.1% used as control, total RNAs were extracted using the Qiagen RNeasy kit (Qiagen). Cells were rinsed with cold PBS and lysed in the ad hoc buffer provided in the kit. Extraction was performed according to the supplier's recommendations. The collected RNAs were stored at −80° C.
The RNA concentration was determined by spectrophotometric measurement (QIAxpert, Qiagen) and the RNA quality was analyzed by capillarity electrophoresis (Agilent Bioanalyzer 2100—Agilent RNA 6000 Nano Kit).
Reverse transcription was performed with kit “RT2 First Strand Kit” (Qiagen) from total RNA according to the manufacturer's instructions.
The qPCR method was used to quantify the expression changes of specific markers in the cDNA populations. The arrays “RT2 Profiler PCR Array human wound healing” containing specific primers for 84 target genes.
The amplification of target genes was performed following the supplier's recommendations thanks to a “HotStart Taq DNA Polymerase” and to the use of SYBR Green as detection method. The SYBR Green is a marker emitting fluorescence once inserted between the paired bases of nucleic acids. The fluorescence intensity is thus directly proportional to the quantity of produced amplicons.
The qPCRs were run using the Quantstudio7 Real-Time PCR System (Applied Biosystems) and its software (QuantStudio real time PCR Software v1.3. software, Applied Biosystems).
The data obtained for E4 treated conditions were compared to the ethanol control in both cell types. The threshold cycles (Ct) values were normalized to the mean of Ct of several housekeeping genes present on the array (indicated in the table below). The maximum Ct cut-off value was fixed at 36 cycles meaning that Ct values above 36 were not considered in the analysis.

human monocytes = test: Immune cell polarization (qPCR NOS2/ARG1), human monocytes; assay type: cell-based; settings: activated human monocytes, qPCR marker
Procedure: Immune cell polarization was evaluated in vitro using markers for M1/TH-1 (NOS2) and M2/TH-2 (ARG1) phenotype with human monocytes and mouse monocytes (BMDM bone marrow derived monocytes).
Human blood was collected under national ethical approval with full informed written patient consent. Freshly isolated human blood was collected in EDTA vacutainer tubes, diluted 1:1 in PBS and gently layered onto histopaque (Merck). Tubes were immediately centrifuged at 100×g for 30 minutes and the whitish buffy layer formed at the histopaque interface aspirated and washed (centrifuged 100×g, 10 minutes) twice with sterile PBS. Untouched classical (CD14++, CD16−) monocytes were isolated from the washed buffy layer cells using the Miltenyi Classical Monocyte Isolation Kit, LS columns and a MidiMACs separator (Miltenyi). Isolated cells were seeded into tissue culture plates and stimulated to differentiate using PMA.
An experiment was conducted to evaluate the anti-inflammatory effects of E4 or vehicle (negative control). qPCR methodology was used to assess the effects of E2 and E4 on immune cell polarization using well validated marker of pro-inflammatory (NOS2 for MI/TH-1 phenotype) and anti-inflammatory (ARG1 for ME/TH-2 phenotype) activity.

[1] = tested on: primary human dermal fibroblasts; test: Fibroblast monolayer scratch assay, human; assay type: cell-based; settings: 10^−10 M to 10^−6 M, three female donors, compared with E2
Procedure: Human skin was transferred to the laboratory in holding media (DMEM containing 4% penicillin-streptomycin and Amphotericin B solution) within 30 minutes of collection. Once defatted, the skin was rinsed in HBSS with 4% PSA followed by DPBS without antibiotics, then cut into thin strips and floated on 0.2% Dispase II in DPBS overnight at 4° C., followed by manual separation of the epidermis from the dermis. Primary human epidermal keratinocytes and primary human dermal fibroblasts were then isolated.
Confluent wells of both primary keratinocytes and fibroblasts were subjected to a highly validated scratch wounding procedure (using a 1 mL sterile filter tip). Post-scratching, cells were rinsed with DPBS and cell-specific media containing treatments added to each well. Cells were imaged on a ptychographic live cell imaging platform (Livecyte 2TM, Phasefocus) for 24-48 hours. Automated tracking of individual unlabeled cells will be combined with 3D cell measurements to quantify a range of wound-relevant cell parameters including scratch closure rate.
Dose range finding experiments were conducted with E4 (10^−10M to 10^−6M) and E2 with and without Mitomycin C (MMC, to inhibit proliferation) using vehicle as negative controls. […]

[2] = female, Lister Hooded, rat, in vivo, po, 15 mg/kg, 0.5 h
Procedure: Tissue distribution was determined in female rats (partially pigmented and non-pigmented) using [^14C]-estetrol.
A group of six female Lister Hooded rats each received a single oral dose of [^14C]-estetrol. At each selected time (see below) one animal was killed (by overdose of CO2) followed by immediate snap freezing in hexane/solid CO2. The carcasses were retained for examination of the tissue distribution of radioactivity using the technique of quantitative whole body autoradiography (QWBA).
Times for analysis were: (0.5, 8, and 24 hours, 7, 14 and 35 days).
Frozen carcasses were subjected to whole-body autoradiography.
Where concentrations are reported, radioactivity was assumed to be associated with [^14C]-estetrol or any metabolic products derived from [^14C]-estetrol. The specific activities of the dosed test compounds were used for the calculation of concentrations in all cases. Recoveries of radioactivity are reported as percentage of administered radioactivity (% dose). Radioactivity concentrations are also reported as μg equivalents/g.

With C[C@]12CC[C@@H]3c4ccc(O)cc4CC[C@H]3[C@@H]1[C@@H](O)[C@@H](O)[C@@H]2O [E4, 1,3,5 (10)-estratrien-3,15alpha,16alpha,17beta-tetrol] the “COL1A2 (Collagen alpha-2(I) chain) expression, FC” value (human dermal fibroblasts) was 0.9445 Fold Change (FC), the “CTGF (CCN family member 2) expression, FC” value (human dermal fibroblasts) was 0.7643 Fold Change (FC) and the “MAPK1 (Mitogen-activated protein kinase 1) expression, FC” value (human dermal fibroblasts) was 0.9284 Fold Change (FC). For the same compound, the “MMP7 (Matrix metalloproteinase-7; Matrilysin) expression, FC” value (human dermal fibroblasts) was 1.1451 Fold Change (FC), the “SERPINE1 (Plasminogen activator inhibitor 1) expression, FC” value (human dermal fibroblasts) was 0.8516 Fold Change (FC) and the “VTN (Vitronectin) expression, FC” value (human dermal fibroblasts) was 0.7652 Fold Change (FC). The “WNT5A (Protein Wnt-5a) expression, FC” value (human dermal fibroblasts) was 0.8930 Fold Change (FC), the “immune cell polarization, human monocytes” value (human monocytes) was “switch from subtype M1 (pro-inflammatory) to subtype M2 (healing)” and the “in vitro wound closure, human fibroblasts scratch assay” value [1] was “promotes in vitro wound closure to a similar extent as E2”. The “Total amount of radioactivity in tissue, Skin (non-pigmented)” value [2] was 1.1 % dose administered/tissue and the “Total amount of radioactivity in tissue, Skin (pigmented)” value [2] was 1.7 % dose administered/tissue.
